In brackets after ≈: the same amount, converted by molar mass. Activity calls are given as the source filed them. The calls are words filed in the database; no cut-off is given here.
Assays:
Candida metapsilosis [1] = experiment: Antifungal activity against Candida metapsilosis clinical isolate bloodstream form assessed as time required for 50% reduction in fungal growth at 32 mg/L by time-kill assay; assay type: functional
Candida metapsilosis [2] = experiment: Antifungal activity against Candida metapsilosis clinical isolate bloodstream form assessed as time required for 99.9% reduction in fungal growth at 16 mg/L by time-kill assay; assay type: functional
Candida orthopsilosis [3] = experiment: Antifungal activity against Candida orthopsilosis clinical isolate bloodstream form assessed as time required for 99% reduction in fungal growth at 4 mg/L by time-kill assay; assay type: functional
Candida parapsilosis [4] = experiment: Antifungal activity against Candida parapsilosis clinical isolate bloodstream form assessed as time required for 99% reduction in fungal growth at 16 mg/L by time-kill assay; assay type: functional
Candida orthopsilosis [5] = experiment: Antifungal activity against Candida orthopsilosis clinical isolate bloodstream form assessed as time required for 50% reduction in fungal growth at 16 mg/L by time-kill assay; assay type: functional
Candida orthopsilosis [6] = experiment: Antifungal activity against Candida orthopsilosis clinical isolate bloodstream form assessed as time required for 99% reduction in fungal growth at 32 mg/L by time-kill assay; assay type: functional
Candida orthopsilosis [7] = experiment: Antifungal activity against Candida orthopsilosis clinical isolate bloodstream form assessed as time required for 99.9% reduction in fungal growth at 16 mg/L by time-kill assay; assay type: functional
Candida metapsilosis [8] = experiment: Antifungal activity against Candida metapsilosis clinical isolate bloodstream form assessed as time required for 99% reduction in fungal growth at 32 mg/L by time-kill assay; assay type: functional
Candida orthopsilosis [9] = experiment: Antifungal activity against Candida orthopsilosis clinical isolate bloodstream form assessed as time required for 50% reduction in fungal growth at 0.25 mg/L by time-kill assay; assay type: functional
Candida parapsilosis [10] = experiment: Antifungal activity against Candida parapsilosis clinical isolate bloodstream form assessed as time required for 90% reduction in fungal growth at 16 mg/L by time-kill assay; assay type: functional
Candida metapsilosis [11] = experiment: Antifungal activity against Candida metapsilosis clinical isolate bloodstream form assessed as time required for 99.9% reduction in fungal growth at 32 mg/L by time-kill assay; assay type: functional
Candida parapsilosis [12] = experiment: Antifungal activity against Candida parapsilosis clinical isolate bloodstream form assessed as time required for 99% reduction in fungal growth at 0.25 mg/L by time-kill assay; assay type: functional
Candida parapsilosis [13] = experiment: Antifungal activity against Candida parapsilosis clinical isolate bloodstream form assessed as time required for 90% reduction in fungal growth at 1 mg/L by time-kill assay; assay type: functional
Candida parapsilosis [14] = experiment: Antifungal activity against Candida parapsilosis clinical isolate bloodstream form assessed as time required for 99.9% reduction in fungal growth at 16 mg/L by time-kill assay; assay type: functional
Candida parapsilosis [15] = experiment: Fungicidal activity against Candida parapsilosis ATCC 22019 bloodstream form by CLSI method; assay type: functional; conditions: Lodderomyces parapsilosis
Candida orthopsilosis [16] = experiment: Antifungal activity against Candida orthopsilosis clinical isolate bloodstream form assessed as time required for 99% reduction in fungal growth at 16 mg/L by time-kill assay; assay type: functional
Candida parapsilosis [17] = experiment: Antifungal activity against Candida parapsilosis clinical isolate bloodstream form assessed as time required for 50% reduction in fungal growth at 4 mg/L by time-kill assay; assay type: functional
Candida metapsilosis [18] = experiment: Antifungal activity against Candida metapsilosis clinical isolate bloodstream form assessed as time required for 90% reduction in fungal growth at 1 mg/L by time-kill assay; assay type: functional
Candida metapsilosis [19] = experiment: Antifungal activity against Candida metapsilosis clinical isolate bloodstream form assessed as time required for 90% reduction in fungal growth at 32 mg/L by time-kill assay; assay type: functional
Candida orthopsilosis [20] = experiment: Fungicidal activity against Candida orthopsilosis isolate ATC194 bloodstream form by CLSI method; assay type: functional; conditions: Lodderomyces orthopsilosis, isolate ATC-194
Candida orthopsilosis [21] = experiment: Antifungal activity against Candida orthopsilosis clinical isolate bloodstream form assessed as time required for 50% reduction in fungal growth at 4 mg/L by time-kill assay; assay type: functional
Candida parapsilosis [22] = experiment: Antifungal activity against Candida parapsilosis clinical isolate bloodstream form assessed as time required for 99% reduction in fungal growth at 32 mg/L by time-kill assay; assay type: functional
Candida metapsilosis [23] = experiment: Fungicidal activity against Candida metapsilosis isolate CP-133 bloodstream form by CLSI method; assay type: functional; conditions: Lodderomyces metapsilosis
Candida orthopsilosis [24] = experiment: Fungicidal activity against Candida orthopsilosis isolate CP-150 bloodstream form by CLSI method; assay type: functional; conditions: Lodderomyces orthopsilosis
Candida orthopsilosis [25] = experiment: Antifungal activity against Candida orthopsilosis clinical isolate bloodstream form assessed as time required for 99.9% reduction in fungal growth at 0.25 mg/L by time-kill assay; assay type: functional
Candida orthopsilosis [26] = experiment: Antifungal activity against Candida orthopsilosis clinical isolate bloodstream form assessed as time required for 90% reduction in fungal growth at 0.25 mg/L by time-kill assay; assay type: functional
Candida orthopsilosis [27] = experiment: Antifungal activity against Candida orthopsilosis clinical isolate bloodstream form assessed as mild induction of fungal death at 0.03 to 32 mg/L after 6 hrs by time-kill assay; assay type: functional, organism-based
Candida orthopsilosis [28] = experiment: Antifungal activity against Candida orthopsilosis clinical isolate bloodstream form assessed as time required for 99.9% reduction in fungal growth at 32 mg/L by time-kill assay; assay type: functional
Candida parapsilosis [29] = experiment: Antifungal activity against Candida parapsilosis clinical isolate bloodstream form assessed as induction of fungal killing rate at 0.03 to 32 mg/L measured at 6 hrs by time-kill assay; assay type: functional, organism-based
Candida orthopsilosis [30] = experiment: Antifungal activity against Candida orthopsilosis clinical isolate bloodstream form assessed as time required for 99.9% reduction in fungal growth at 1 mg/L by time-kill assay; assay type: functional
Candida orthopsilosis [31] = experiment: Antifungal activity against Candida orthopsilosis clinical isolate bloodstream form assessed as time required for 90% reduction in fungal growth at 1 mg/L by time-kill assay; assay type: functional
Candida orthopsilosis [32] = experiment: Fungicidal activity against Candida orthopsilosis isolate CP-131 bloodstream form by CLSI method; assay type: functional; conditions: Lodderomyces orthopsilosis
Candida metapsilosis [33] = experiment: Antifungal activity against Candida metapsilosis clinical isolate bloodstream form assessed as time required for 99% reduction in fungal growth at 1 mg/L by time-kill assay; assay type: functional
Candida orthopsilosis [34] = experiment: Antifungal activity against Candida orthopsilosis clinical isolate bloodstream form assessed as time required for 90% reduction in fungal growth at 32 mg/L by time-kill assay; assay type: functional
Candida parapsilosis [35] = experiment: Antifungal activity against Candida parapsilosis clinical isolate bloodstream form assessed as time required for 99.9% reduction in fungal growth at 32 mg/L by time-kill assay; assay type: functional
Candida parapsilosis [36] = experiment: Antifungal activity against Candida parapsilosis clinical isolate bloodstream form assessed as time required for 50% reduction in fungal growth at 16 mg/L by time-kill assay; assay type: functional
Candida parapsilosis [37] = experiment: Antifungal activity against Candida parapsilosis clinical isolate bloodstream form assessed as time required for 99.9% reduction in fungal growth at 4 mg/L by time-kill assay; assay type: functional
Candida metapsilosis [38] = experiment: Antifungal activity against Candida metapsilosis clinical isolate bloodstream form assessed as time required for 99.9% reduction in fungal growth at 4 mg/L by time-kill assay; assay type: functional
Candida metapsilosis [39] = experiment: Antifungal activity against Candida metapsilosis clinical isolate bloodstream form assessed as induction of fungal killing rate at 0.03 to 32 mg/L measured at 6 hrs by time-kill assay; assay type: functional, organism-based
Candida parapsilosis [40] = experiment: Antifungal activity against Candida parapsilosis clinical isolate bloodstream form assessed as time required for 90% reduction in fungal growth at 0.25 mg/L by time-kill assay; assay type: functional
Candida parapsilosis [41] = experiment: Fungicidal activity against Candida parapsilosis isolate CP-301 bloodstream form by CLSI method; assay type: functional; conditions: Lodderomyces parapsilosis
Candida parapsilosis [42] = experiment: Antifungal activity against Candida parapsilosis clinical isolate bloodstream form assessed as time required for 99% reduction in fungal growth at 1 mg/L by time-kill assay; assay type: functional
Candida parapsilosis [43] = experiment: Antifungal activity against Candida parapsilosis clinical isolate bloodstream form assessed as time required for 99% reduction in fungal growth at 4 mg/L by time-kill assay; assay type: functional

Question: For `CC[C@H](C)C[C@H](C)CCCCCCCCC(=O)N[C@H]1C[C@@H](O)[C@@H](NCCN)NC(=O)[C@@H]2[C@@H](O)CCN2C(=O)[C@H]([C@H](O)CCN)NC(=O)[C@H]([C@H](O)[C@@H](O)c2ccc(O)cc2)NC(=O)[C@@H]2C[C@@H](O)CN2C(=O)[C@H]([C@@H](C)O)NC1=O` [CASPOFUNGIN], which Time (Candida metapsilosis [1]) is on record?
Answer: The Time was 1.99 h.

Question: What about the Time (Candida metapsilosis [2]) of the same compound?
Answer: The Time was 25.82 h.

Question: And the Time (Candida orthopsilosis [3])?
Answer: Its Time is 22.7 h.

Question: And the Time (Candida parapsilosis [4])?
Answer: Its Time is greater than 48 h.

Question: And the Time (Candida orthopsilosis [5])?
Answer: The Time was 3.86 h.

Question: And the Time (Candida orthopsilosis [6])?
Answer: Its Time is greater than 48 h.

Question: What about the Time (Candida orthopsilosis [7]) of the same compound?
Answer: Its Time is 38.46 h.

Question: What about the Time (Candida metapsilosis [8]) of the same compound?
Answer: Its Time is 13.2 h.

Question: What about the Time (Candida orthopsilosis [9]) of the same compound?
Answer: The Time was 17.5 h.

Question: What about the Time (Candida parapsilosis [10]) of the same compound?
Answer: The Time was 8.61 h.

Question: What about the Time (Candida metapsilosis [11]) of the same compound?
Answer: Its Time is 19.8 h.

Question: What about the Time (Candida parapsilosis [12]) of the same compound?
Answer: The Time was greater than 48 h.

Question: And the Time (Candida parapsilosis [13])?
Answer: The Time was greater than 48 h.

Question: And the Time (Candida parapsilosis [14])?
Answer: The Time was greater than 48 h.

Question: What about the MIC (Candida parapsilosis [15]) of the same compound?
Answer: The MIC was 1 µg/mL (≈ 0.915 µM).

Question: And the Time (Candida orthopsilosis [16])?
Answer: Its Time is 25.64 h.

Question: And the Time (Candida parapsilosis [17])?
Answer: Its Time is 7.7 h.

Question: What about the Time (Candida metapsilosis [18]) of the same compound?
Answer: The Time was greater than 48 h.

Question: And the Time (Candida metapsilosis [19])?
Answer: Its Time is 6.6 h.

Question: What about the MIC (Candida orthopsilosis [20]) of the same compound?
Answer: Its MIC is 0.5 µg/mL (≈ 0.457 µM).

Question: And the Time (Candida orthopsilosis [21])?
Answer: The Time was 3.42 h.

Question: What about the Time (Candida parapsilosis [22]) of the same compound?
Answer: The Time was greater than 48 h.

Question: What about the MIC (Candida metapsilosis [23]) of the same compound?
Answer: The MIC was 0.5 µg/mL (≈ 0.457 µM).

Question: What about the MIC (Candida orthopsilosis [24]) of the same compound?
Answer: The MIC was 0.5 µg/mL (≈ 0.457 µM).

Question: And the Time (Candida orthopsilosis [25])?
Answer: The Time was greater than 48 h.

Question: What about the Time (Candida orthopsilosis [26]) of the same compound?
Answer: The Time was greater than 48 h.

Question: What about the Activity (Candida orthopsilosis [27]) of the same compound?
Answer: The Activity was “Active”.

Question: What about the Time (Candida orthopsilosis [28]) of the same compound?
Answer: Its Time is greater than 48 h.

Question: And the Activity (Candida parapsilosis [29])?
Answer: The Activity was “inactive”.

Question: What about the Time (Candida orthopsilosis [30]) of the same compound?
Answer: Its Time is greater than 48 h.

Question: What about the Time (Candida orthopsilosis [31]) of the same compound?
Answer: Its Time is 24.75 h.

Question: And the MIC (Candida orthopsilosis [32])?
Answer: The MIC was 2 µg/mL (≈ 1.83 µM).

Question: What about the Time (Candida metapsilosis [33]) of the same compound?
Answer: The Time was greater than 48 h.

Question: And the Time (Candida orthopsilosis [34])?
Answer: Its Time is 34.97 h.

Question: What about the Time (Candida parapsilosis [35]) of the same compound?
Answer: The Time was greater than 48 h.

Question: And the Time (Candida parapsilosis [36])?
Answer: Its Time is 2.59 h.

Question: What about the Time (Candida parapsilosis [37]) of the same compound?
Answer: The Time was greater than 48 h.

Question: What about the Time (Candida metapsilosis [38]) of the same compound?
Answer: The Time was greater than 48 h.

Question: What about the Activity (Candida metapsilosis [39]) of the same compound?
Answer: The Activity was “inactive”.

Question: And the Time (Candida parapsilosis [40])?
Answer: Its Time is greater than 48 h.

Question: And the MIC (Candida parapsilosis [41])?
Answer: The MIC was 2 µg/mL (≈ 1.83 µM).

Question: And the Time (Candida parapsilosis [42])?
Answer: Its Time is greater than 48 h.

Question: What about the Time (Candida parapsilosis [43]) of the same compound?
Answer: The Time was greater than 48 h.

— ChEMBL document CHEMBL1255421, “In vitro fungicidal activities of echinocandins against Candida metapsilosis, C. orthopsilosis, and C. parapsilosis evaluated by time-kill studies” (2010)
